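A five-concentration, 48-hour dose response in 96-well plates underlies each endpoint, interpolated linearly between surrounding concentrations. Here, GI50 denotes the concentration required for 50% inhibition of growth. TGI is the concentration that stops growth completely.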
Columns and labels:
Assay in all cases: NCI-60 cell line screen, 48 h
[1] = system: 786-0 renal
[2] = system: A498 renal
[3] = system: A549 NSCLC
[4] = system: ACHN renal
[5] = system: BT-549 breast
[6] = system: CAKI-1 renal
[7] = system: CCRF-CEM leukemia
[8] = system: COLO 205 colon
[9] = system: DU-145 prostate
[10] = system: EKVX NSCLC
[11] = system: HCC-2998 colon
[12] = system: HCT-116 colon
[13] = system: HCT-15 colon
[14] = system: HL-60(TB) leukemia
[15] = system: HOP-62 NSCLC
[16] = system: HOP-92 NSCLC
[17] = system: HS 578T breast
[18] = system: HT29 colon
[19] = system: IGROV1 ovarian
[20] = system: K-562 leukemia
[21] = system: KM12 colon
[22] = system: LOX IMVI melanoma
[23] = system: M14 melanoma
[24] = system: MALME-3M melanoma
[25] = system: MCF7 breast
[26] = system: MDA-MB-231 breast
[27] = system: MDA-MB-435
[28] = system: MOLT-4 leukemia
[29] = system: NCI-H226 lung
[30] = system: NCI-H23 lung
[31] = system: NCI-H460 lung
[32] = system: NCI-H522 lung
[33] = system: NCI/ADR-RES ovarian
[34] = system: OVCAR-3 ovarian
[35] = system: OVCAR-4 ovarian
[36] = system: OVCAR-5 ovarian
[37] = system: OVCAR-8 ovarian
[38] = system: PC-3 prostate
[39] = system: RPMI-8226 leukemia
[40] = system: RXF 393 renal
[41] = system: SF-268 CNS
[42] = system: SF-295 CNS
[43] = system: SF-539 CNS
[44] = system: SK-MEL-2 melanoma
[45] = system: SK-MEL-28 melanoma
[46] = system: SK-MEL-5 melanoma
[47] = system: SK-OV-3 ovarian
[48] = system: SN12C renal
[49] = system: SNB-19 CNS
[50] = system: SNB-75 CNS
[51] = system: SR leukemia
[52] = system: SW-620 colon
[53] = system: T-47D breast
[54] = system: TK-10 renal
[55] = system: U251 CNS
[56] = system: UACC-257 melanoma
[57] = system: UACC-62 melanoma
[58] = system: UO-31 renal

## c1ccc(-n2nnnc2-c2cccc3ccccc23)cc1
[1]
  GI50: 2010 nM
  TGI: 53200 nM
[2]
  GI50: 704 nM
  TGI: > 55300 nM
[3]
  GI50: 1040 nM
  TGI: > 100000 nM
[4]
  GI50: 840 nM
  TGI: > 100000 nM
[5]
  GI50: 755 nM
  TGI: > 61200 nM
[6]
  GI50: 465 nM
  TGI: > 100000 nM
[7]
  GI50: 447 nM
  TGI: > 100000 nM
[8]
  GI50: 490 nM
  TGI: 3830 nM
[9]
  GI50: 920 nM
  TGI: 6860 nM
[10]
  GI50: 2420 nM
  TGI: > 100000 nM
[11]
  GI50: 1120 nM
  TGI: 10300 nM
[12]
  GI50: 401 nM
  TGI: 24500 nM
[13]
  GI50: 348 nM
  TGI: > 100000 nM
[14]
  GI50: 365 nM
  TGI: 1700 nM
[15]
  GI50: 765 nM
  TGI: > 100000 nM
[16]
  GI50: 1190 nM
  TGI: 24300 nM
[17]
  GI50: 1360 nM
  TGI: > 100000 nM
[18]
  GI50: 357 nM
  TGI: > 20300 nM
[19]
  GI50: 1560 nM
  TGI: > 100000 nM
[20]
  GI50: 377 nM
  TGI: > 100000 nM
[21]
  GI50: 396 nM
  TGI: 22800 nM
[22]
  GI50: 498 nM
  TGI: 24800 nM
[23]
  GI50: 365 nM
  TGI: 8810 nM
[24]
  GI50: 635 nM
  TGI: > 100000 nM
[25]
  GI50: 562 nM
  TGI: > 100000 nM
[26]
  GI50: 1340 nM
  TGI: 28800 nM
[27]
  GI50: 121 nM
  TGI: 489 nM
[28]
  GI50: 657 nM
  TGI: > 100000 nM
[29]
  GI50: 15500 nM
  TGI: > 100000 nM
[30]
  GI50: 1280 nM
  TGI: > 100000 nM
[31]
  GI50: 442 nM
  TGI: > 42400 nM
[32]
  GI50: 272 nM
  TGI: 2710 nM
[33]
  GI50: 279 nM
  TGI: 1610 nM
[34]
  GI50: 257 nM
  TGI: 627 nM
[35]
  GI50: 11400 nM
  TGI: > 100000 nM
[36]
  GI50: 3270 nM
  TGI: > 100000 nM
[37]
  GI50: 1480 nM
  TGI: > 100000 nM
[38]
  GI50: 1140 nM
  TGI: > 100000 nM
[39]
  GI50: 579 nM
  TGI: 45700 nM
[40]
  GI50: 1010 nM
  TGI: > 20100 nM
[41]
  GI50: 833 nM
  TGI: > 73100 nM
[42]
  GI50: 395 nM
  TGI: 19900 nM
[43]
  GI50: 445 nM
  TGI: 3430 nM
[44]
  GI50: 3680 nM
  TGI: > 63100 nM
[45]
  TGI: > 100000 nM
[46]
  GI50: 462 nM
  TGI: 20200 nM
[47]
  GI50: 908 nM
  TGI: 13500 nM
[48]
  GI50: 1330 nM
  TGI: > 100000 nM
[49]
  GI50: 859 nM
  TGI: > 100000 nM
[50]
  GI50: 1550 nM
  TGI: > 27700 nM
[51]
  GI50: 438 nM
  TGI: 74400 nM
[52]
  GI50: 453 nM
  TGI: > 100000 nM
[53]
  GI50: 461 nM
  TGI: > 100000 nM
[54]
  GI50: 1450 nM
  TGI: > 100000 nM
[55]
  GI50: 536 nM
  TGI: > 48100 nM
[56]
  GI50: 27800 nM
  TGI: > 100000 nM
[57]
  GI50: 666 nM
  TGI: > 100000 nM
[58]
  GI50: 2160 nM
  TGI: 61100 nM
